# Measured values as given in paper PMC11110755, “Structure-based virtual screening of unbiased and RNA-focused libraries to identify new ligands for the HCV IRES model system” (RSC Medicinal Chemistry, 2024).
# “Also recorded” adds a separate entry of the source. Where two headings read alike, the source gives them in different places.
# What was measured:
# [1] = system: HCV IRES subdomain IIa; assay: FRET assay monitoring ligand-induced conformational change of Cy3/Cy5-labelled HCV IRES subdomain IIa; assay type: biochemical, hepatitis C virus; conditions: for FRET-signal change / conformational change of HCV IRES subdomain IIa, in words: pre-screening 1000, 100, 10 and 0.001 μM
# Description: For the FRET assay, a two stranded HCV IRES subdomain IIa carrying a 5′-Cy3-label on one and 5′-Cy5-label on the other strand (Cy3-[…], Cy5-[…], Biomers.net GmbH) was used as described previously.[22,53] All samples containing labelled RNA were treated under light protection. FRET experiments were performed on a Tecan Spark 10 M plate reader (excitation/emission: 480/670 nm) using black half area 96 well microplates (Greiner Bio-One), based on a protocol by Zhou et al.[53] The 5′-Cy3- and 5′-Cy5-labelled single strands were annealed by heating to 75 °C in FRET buffer (10 mM HEPES pH 7.0, 2 mM MgCl2) and cooled down to room temperature for at least 20 min. The 5′-Cy3/Cy5-labelled RNA was diluted to 100 nM in FRET buffer and supplemented with compounds 8–28 in appropriate concentrations. Compounds 4 and 5 were used as positive controls. For the initial screening, compounds were added in final concentrations of 1000, 100, 10 and 0.001 μM (Fig. S4 ^†). If a concentration dependent reduction of the FRET signal (Cy5-emission) was observed, EC50-values were determined using ligand concentrations from 1 mM to 100 nM in 3.16-fold (semi-logarithmic) dilution series. For those compounds, the Cy3 emission was measured at 535 nm to confirm a conformational change dependent reduction in the Cy5 emission signal via Cy3 emission increase (Fig. S7 ^†). For each experiment, one DMSO negative control was carried out. The final DMSO concentration was always 2%. Excitation and emission spectra were recorded for the Cy3/Cy5-labelled RNA (100 nM) in FRET buffer to confirm excitation (Cy3) and emission (Cy5) wavelength as well as for each compound (1 μM) in FRET buffer to exclude any interference with the cyanine dyes. All measurements were performed at least as triplicates for screening and EC50-determination.
# (§1) FRET experiments were analyzed using GraphPad Prism (version 8.0.1., GraphPad Software, Boston, Massachusetts USA, https://www.graphpad.com).
# [2] = biological target: HCV IRES subdomain IIa; assay type: binding, hepatitis C virus; conditions: for Kd / MST KD: 30 nM Cy5-labelled RNA, 10 mM HEPES pH 7.0, 2 mM MgCl2, 2% DMSO, ≥ = no saturation, n.b. no binding observed; for Kd: read-out: MST KD
# Description: For the MST assay, the same sequence of the two stranded HCV IRES subdomain IIa as for the FRET assay was used. One strand was 5′-Cy5-labelled and the other strand was unmodified ([…], Cy5-[…], Biomers.net GmbH). All samples containing labelled RNA were treated under light protection. MST experiments were performed on a Monolith NT.115 from NanoTemper Technologies using standard uncoated capillaries. The strands were annealed by heating to 75 °C in MST buffer (10 mM HEPES pH 7.0, 2 mM MgCl2) and cooled down to room temperature for at least 20 min. The 5′-Cy5-labelled HCV IRES domain IIa RNA was diluted to 30 nM in MST buffer and supplemented with compounds 8–25 in appropriate concentrations. Compounds 4 and 5 were used as positive controls. For the initial screening, compounds were added to final concentrations of 1000 (or 316 if limited by solubility), 100, 10 and 0.001 μM (Fig. S5 ^†). If a concentration-dependent shift of thermophoresis was observed, KD-values were determined using concentrations ranging from 1 mM (if permitted by solubility, otherwise starting from 316 or 100 μM) to 0.01 μM in a 3.16-fold (semi-logarithmic) dilution series. For each experiment, one DMSO negative control was carried out. Final DMSO concentration was always 2%.
# (§2) Off-target counter screens by MST were performed as described previously.[31,84] Briefly, the 5′-Cy5-labelled Tte preQ1-Riboswitch aptamer domain (Biomers.net GmbH) was heated to 75 °C for 5 min, cooled down to room temperature for at least 20 min and then diluted to 20 nM in MST buffer (50 mM Tris-HCl pH 7.5, 100 mM KCl, 25 mM MgCl2) and supplemented with compounds 4, 5, 8–13, 18, 21, 22 and 26 to final concentrations of 1000, 100, 10 and 0.001 μM. PreQ1 was used as a positive control. The 5′-Cy5-labelled B. angulatum SAM VI-Riboswitch aptamer domain (Eurofins Genomics GmbH) was heated to 75 °C for 5 min, cooled down to room temperature for at least 20 min and then diluted to 20 nM in MST buffer (50 mM Tris-HCl pH 7.5, 100 mM KCl, 25 mM MgCl2) and supplemented with compounds 5, 9 and 28 to final concentrations of 1000, 100, 10 and 0.001 μM. SAM was used as a positive control. For each experiment, one DMSO negative control was carried out. The final DMSO concentration was 2%. All measurements were performed at least as duplicates for pre-screening and triplicates for KD-determination. MST measurements were analyzed from signals after 18 s laser on-time using the MO.Affinity Analysis software (version 2.3) and exported for statistical analysis and plotting in GraphPad Prism (version 8.0.1., GraphPad Software, Boston, Massachusetts USA, https://www.graphpad.com).
# [3] = system: HCV IRES; set-up: method as in PMID 10866369; conditions: previously reported, Fig. 1; cited from earlier work
# [4] = system: HCV IRES subdomain IIa; set-up: method as in PMID 16279767, PMID 24930829, PMID 27775338; conditions: previously reported, Fig. 1; read-out: EC50 (FRET assay); cited from earlier work
# [5] = system: HCV IRES subdomain IIa; set-up: method as in PMID 25349403; conditions: previous study; cited from earlier work
# [6] = biological target: Tte preQ1-Riboswitch aptamer domain; assay: MST off-target counter screen, preQ1-riboswitch aptamer domain; assay type: binding, Thermoanaerobacter tengcongensis
# Description: as §2
# [7] = system: SAM VI-Riboswitch aptamer domain; assay: MST off-target counter screen, SAM VI-riboswitch aptamer domain; assay type: binding, B. angulatum; conditions: 1000, 100, 10 and 0.001 μM
# Description: as §2
# [8] = system: HCV IRES subdomain IIa in presence of total RNA from yeast; assay: Selectivity FRET assay in presence of competing total RNA from yeast; assay type: biochemical, hepatitis C virus; conditions: 1:5 m/m HCV IRES : total RNA from yeast
# Description: For the HCV IRES-binding compounds (4, 5, 8–13, 8a–8c), a selectivity FRET assay in presence of total RNA from yeast (Roche) was performed. The ratio of the FRET HCV IRES subdomain IIa construct and the total RNA was set to 1 : 5 m/m. The preparation of the labelled RNA and the compounds was the same as in the binding assay. The yeast RNA was diluted to 7.88 mg L^−1 and supplemented with 100 nM HCV IRES and appropriate concentrations of the compounds (3.16-fold dilution series) in FRET buffer (Fig. S10 ^†). For each compound, triplicate measurements were performed. For each experiment, one DMSO negative control was carried out. The final DMSO concentration was always 2%.
# as §1
# [9] = 100 nM Cy3/Cy5-labelled RNA, 10 mM HEPES pH 7.0, 2 mM MgCl2, 2% DMSO, ≥ = lower limit
SMILES,"EC50 [1, 9]",Kd [2],"FRET-signal change / conformational change of HCV IRES subdomain IIa, in words [1]",further results
CC(C)NCC(O)COc1ccc2[nH]cc(CCN)c2c1 (stereo not shown) [Compound 11],≥ 0.5 mM,≥ 100 µM,,
Cc1cc2nc3ccc(N(C)C)cc3nc2cc1N [Compound 1],,,,IC50 (Fluci reporter gene assay) [3]: 0.02 µg/mL
Nc1cc(-c2ccc3[nH]ncc3c2)c2cc[nH]c2n1 [Compound 12],≥ 0.3 mM,≥ 50 µM,,
NC1=Nc2ccccc2C2(CC2)N1 [Compound 7],,,,EC50 [4]: 100 µM
COc1cccc(C2NC(N)=Nc3nc4ccccc4n32)c1 (stereo not shown) [Compound 21],,,no large changes in FRET-signals; also recorded: no changes in the FRET-assay,
NC1=NC(c2cn[nH]c2-c2cccc(O)c2)n2c(nc3ccccc32)N1 (stereo not shown) [Compound 13],≥ 1 mM,≥ 100 µM,,EC50 ([1]; as printed in text in mM): ≥ 1 mM
NC(=O)c1c[nH]c2ccc(NC(=O)CCc3cc4n(n3)CCCNC4)cc12 [Compound 10],≥ 0.5 mM,,signals in the FRET assay,"Cy3-emission change in FRET assay, in words ([1]; Cy3 emission at 535 nm): no increase of Cy3-emission; MST KD [2]: n.b."
N=C(N)NCCC[C@H](N)C(=O)O [arginine],,,,"HCV IRES subdomain IIa binding, in words [5]: no binding"
NC1=Nc2nc3ccccc3n2C(C2CC2)N1 (stereo not shown) [Compound 18],,,no large changes in FRET-signals; also recorded: no changes in the FRET-assay,
CNC(=N)Nc1nc(C)c2ccc(OC)cc2n1 [Compound 8b],0.061 ± 0.019 mM,88 ± 2 µM,,lipophilic ligand efficiency LLE [2]: 2.9
COc1ccc2c(C)nc(NC(=N)N)nc2c1 [Compound 8c],0.12 ± 0.024 mM,134 ± 43 µM,,
Nc1nc(N2CCN(Cc3c(Cl)ccc(O)c3Cl)CC2)cc(=O)[nH]1 [Compound 9],0.217 ± 0.041 mM,,signals in the FRET assay,"MST KD [2]: n.b.; Kd ([6]; 20 nM Cy5-labelled aptamer, read-out: KD preQ1 riboswitch (MST)): 7.8 µM; preQ1-riboswitch binding / selectivity (MST-shift), in words ([6]; 1000, 100, 10 and 0.001 μM): Weak preQ1-riboswitch binding; also recorded: binding to the preQ1-riboswitch at very high concentrations; SAM-VI-riboswitch binding (MST-shift), in words [7]: no MST shift; also recorded: no binding; also recorded: no general RNA-promiscuity; FRET result in presence of competing total RNA, in words [8]: lower EC50-values; also recorded: reduced"
